According to US12221432B2, “Estrogen receptor antagonist” (CHIA TAI TIANQING PHARMACEUTICAL GROUP CO., LTD., priority 2018, dated 2025):
Structures can show the parent of a compound that is named as a salt. Where two headings read alike, the source gives them in different places. One block for each compound: values may come before it.

Assays:
[1] = tested on: MCF-7 cells; assay: MCF-7 cell proliferation inhibition; format: cell-based; conditions: read-out: IC50 for MCF-7 cell proliferation inhibition
Description: EMEM medium was purchased from Wisent, and fetal bovine serum was purchased from Biosera. Promega CellTiter-Glo reagent. MCF-7 cells were purchased from the Cell Bank of Type Culture Collection Committee of the Chinese Academy of Sciences. Nivo5 multi-marker analyzer (PerkinElmer).
MCF-7 cells were seeded in a white 384-well plate at 600 cells/[…] suspension/well. The plate was incubated in a CO2 incubator overnight.
On the day of treatment, a day 0 plate coated under the same conditions the day before was taken, centrifuged to remove the medium, added with 25 microliters of Promega CellTiter-Glo reagent to each well, and incubated at room temperature for 10 minutes to stabilize the luminescence signal. Measures were read by PerkinElmer Nivo multi-marker analyzer as an initial value for 0% inhibition.
The test compounds were serially 5-fold diluted to the 10th concentration with a multichannel pipette, i.e., from 2 millimoles to […], and the experiments were set up in duplicate. 47.5 microliters of medium was added to the intermediate plate, 2.5 microliters of serially diluted compounds were transferred to corresponding wells of the intermediate plate, and after mixing, 5 microliters of the mixture per well was transferred to the cell plate. The plate was incubated in a CO2 incubator for 6 days.
After 6 days of co-incubation with the compounds, the plate was centrifuged to remove the medium, added with 25 microliters of Promega CellTiter-Glo reagent to each well, and incubated at room temperature for 10 minutes to stabilize the luminescence signal. Measures were read by PerkinElmer Nivo multi-marker analyzer.
The original data was converted into inhibition rate by the formula: % inhibition=((RFUCmpd−AVER(RFUNeg.Ctrl))/((AVER(RFUDay0)−AVER(RFUNeg.Ctrl))×100%. Curve fitting was conducted and IC50 was calculated.

[2] = Pharmacokinetics study in mice (cassette); format: in vivo; conditions: female, Balb/c, plasma, mouse cassette PK
Source text: (§1) Objective: To determine the drug concentration in the plasma of the mice at different times after intravenous and oral administration of the test compounds by LC/MS/MS using female Balb/c mice as the test animals. To investigate the pharmacokinetic performance of the test compounds in mice and to evaluate the pharmacokinetic characteristics.
Test animals: 4 healthy female Balb/c mice were divided into 2 groups according to the principle of similar weight, 2 in the IV group and 2 in the PO group. The animals were purchased from Shanghai Lingchang Biotechnology Co., Ltd.
(§2) IV group: Appropriate amounts of compounds were weighed respectively, prepared into 2 mg/mL solutions, then mixed to give a 0.5 mg/mL solution, which was stirred and ultrasonicated until a clear state. The vehicle was 15% HP-b-CD.
(§3) PO group: An appropriate amount of the IV group solution was taken and diluted to 0.4 mg/mL with 15% HP-b-CD.
(§4) Administration: After fasting overnight, the IV group was administered intravenously, and the dose of the test compound was 1 mg/kg; the PO group was administered intragastrically, and the dose of the test compound was 2 mg/kg.
(§5) Procedures: For IV group, 30 μL of blood was collected from the saphenous vein of the female Balb/c mice at 0.0833, 0.25, 0.5, 1, 2, 4, 8, and 24 hours post-dose, and placed in a commercial anticoagulant tube with EDTA-K2 added in advance. For PO group, 30 μL of blood was collected from the saphenous vein of the female Balb/c mice at 0.25, 0.5, 1, 2, 4, 8, 12 and 24 hours post-dose, and placed in a commercial anticoagulant tube with EDTA-K2 added in advance. The blood samples were centrifuged (3,200 g, 4° C., 10 minutes) to give plasma samples, which was transferred to a pre-cooled centrifuge tube, frozen in dry ice, and stored in an ultra-low temperature freezer at −60° C. or lower until the LC-MS/MS analysis. The animals were given free access to food 4 hours after the administration. LC/MS/MS method was used to determine the content of the test compounds in the plasma of mice after intravenous and oral administration. The linear range of the method is 2.00-2000 nM.

[3] = Pharmacokinetics study in rats (cassette); format: in vivo; conditions: female, SD, plasma, rat cassette PK
Source text: as §1, with “Experimental objective:” for “Objective:”, “rats” for “mice”, “SD rats” for “Balb/c mice”
Test animals: 4 healthy female SD rats were divided into 2 groups according to according to the principle of similar weight, 2 in the IV group and 2 in the PO group. Animal used in this study were purchased from Beijing Vital River Laboratory Animal Technology Co., Ltd.
as §2, §3, §4
as §5, with “200” for “30”, “jugular” for “saphenous”, “SD rats” for “Balb/c mice”

[4] = tested on: MCF-7 breast cancer cell xenograft; assay: In vivo efficacy, MCF-7 breast cancer xenograft; set-up: species or system BALB/c nude mice; conditions: for Tumor volume 27 days after grouping: Mean ± SEM; for T/C / TGI: day 27
Description: This study was intended to evaluate the anti-tumor efficacy of compounds of the present application in MCF-7 breast cancer cell xenograft BALB/c nude mice (provided by Beijing Vital River Laboratory Animal Technology Co., Ltd., with the number of test animals in each experimental group being 7).
Three days before the xenograft, the mice were inoculated with 0.36 mg of 60-day sustained-release estrogen tablets subcutaneously on the left shoulder. In the logarithmic growth phase, the cells were collected and counted. The cell density was adjusted to 10×10^7 cells/mL, added with an equal volume of Matrigel and mixed for inoculation. Each mouse was xenografted subcutaneously with 0.2 mL of MCF-7 tumor cell suspension (10×10^6) on the right shoulder. On the 14th day after tumor cell xenograft, the mice were grouped and administered the drugs once a day, with an average tumor volume of 200 mm^3 and a body weight of 22.0-23.0 g. Tumor volume and body weight were measured twice a week after grouping. The tumor growth rate (T/C) and tumor growth inhibition rate (TGI) were calculated for the last tumor measurement data on the 27th day after grouping, and the anti-tumor efficacy of the compound was evaluated by TGI (%) or relative tumor proliferation rate T/C (%). TGI (%), reflects the tumor growth inhibition rate. TGI (%)=[(1-(average tumor volume at the end of treatment in a treatment group—average tumor volume at the start of treatment in the treatment group))/(average tumor volume at the end of treatment in the solvent control group—average tumor volume at the start of treatment in the solvent control group)]×100%, relative tumor proliferation rate T/C (%)=TRTV/CRTV×100% (TRTV: average RTV in the treatment group; CRTV: average RTV in the negative control group). Relative tumor volume (RTV) was calculated based on the results of tumor measurement. The formula is RTV=Vt/V0, wherein V0 is the tumor volume measured when grouping and administering (i.e., D0), and Vt is the tumor volume at a certain measurement, the data of TRTV and CRTV should be measured on the same day.

[5] = Homo sapiens, MCF7, 144 h, 6 days incubation, CellTiter-Glo
[6] = 6 days incubation, CellTiter-Glo
[7] = iv, i.v. 1 mg/kg, read-out: Vdss

IC50 [1, 5]: 2.11 nM
Compound: CN(C)C(=O)/C=C/CNCCOc1ccc(/C(=C(/CC(F)(F)F)c2ccccc2C#N)c2[nH]c3ccccc3c2Cl)cn1 [Compound 10]

IC50 [1, 5]: 2.35 nM
Compound: CC/C(=C(/c1ccc(OCCNC/C=C/C(=O)N(C)C)nc1)c1[nH]c2ccccc2c1Cl)c1cccc(C)c1 [Compound 18]

Compound: CN(C)C(=O)/C=C/CNCCOc1ccc(/C(=C(/CC(F)(F)F)c2c(F)cncc2F)c2[nH]c3ccccc3c2Cl)cn1 [Compound 8]
IC50 [1, 6]: 2.72 nM

IC50 [1, 5]: 1.46 nM
Compound: CC/C(=C(/c1ccc(OCCNC/C=C/C(=O)N(C)C)nc1)c1[nH]c2ccccc2c1C)c1cccc(OC)c1 [Compound 20]

IC50 [1, 5]: 2.67 nM
Compound: CC/C(=C(/c1ccc(OCCNC/C=C/C(=O)N(C)C)nc1)c1[nH]c2ccccc2c1Cl)c1ccc(F)cc1F [Compound 17]

IC50 [1, 5]: 0.61 nM
Compound: CC/C(=C(/c1ccc(OCCNC/C=C/C(=O)N(C)C)nc1)c1[nH]c2ccccc2c1Cl)c1cccc(OC)c1 [Compound 4]

IC50 [1, 5]: 2.21 nM
Compound: CC/C(=C(/c1ccc(OCCNC/C=C/C(=O)N(C)C)cc1)c1[nH]c2ccccc2c1Cl)c1cccc(OC)c1 [Compound 21]

Compound: CC/C(=C(/c1ccc(OCCN(C/C=C/C(=O)N(C)C)C(=O)OC(C)(C)C)nc1)c1[nH]c2ncccc2c1Cl)c1ccccc1 [Compound 5]
IC50 [1, 6]: 4.74 nM

IC50 [1, 5]: 0.64 nM
Compound: CC/C(=C(/c1ccc(OCCNC/C=C/C(=O)N(C)C)nc1)c1[nH]c2ccccc2c1Cl)c1ccccc1C#N [Compound 2]

IC50 [1, 5]: 2.75 nM
Compound: CC/C(=C(/c1ccc(OCCNC/C=C/C(=O)N(C)C)nc1F)c1[nH]c2ccccc2c1Cl)c1cccc(OC)c1 [Compound 19]

Compound: CC/C(=C(/c1ccc(OCCNC/C=C/C(=O)N2CCC2)nc1)c1[nH]c2ccccc2c1Cl)c1ccccc1 [Compound 26]
IC50 ([1]; Homo sapiens, MCF7, 144 h): 3.82 nM

IC50 [1, 5]: 0.49 nM
Compound: CC/C(=C(/c1ccc(OCCNC/C=C/C(=O)N2CC(CF)C2)nc1)c1[nH]c2ccccc2c1Cl)c1ccccc1 [Compound 27]

IC50 [1, 5]: 4.25 nM
Compound: C=CC(=O)NCCOc1ccc(/C(=C(/CC)c2ccc(F)cc2Cl)c2[nH]c3ccccc3c2Cl)cn1 [Compound 7]

IC50 [1, 5]: 1 nM
Compound: CC/C(=C(/c1ccc(OCCNC/C=C/C(=O)N(C)C)nc1)c1[nH]c2ccccc2c1Cl)c1ccccc1Cl [Compound 14]

IC50 [1, 5]: 4.13 nM
Compound: CC/C(=C(/c1ccc(OCCNC/C=C/C(=O)N(C)C)nc1)c1cc2ccccc2[nH]1)c1ccc(F)cc1Cl [Compound 11]

IC50 [1, 5]: 2.36 nM
Compound: CN(C)C(=O)/C=C/CNCCOc1ccc(/C(=C(/CC(F)(F)F)c2ccc(F)cc2Cl)c2[nH]c3ccccc3c2Cl)cn1 [Compound 9]

AUC(0-t) ([2]; iv, i.v. 1 mg/kg): 1.1 µM·h
clearance ([2]; iv, i.v. 1 mg/kg): 26 mL/min/kg
half-life ([2]; iv, i.v. 1 mg/kg): 111 min
Vd [2, 7]: 3.45 L/kg
AUC(0-t) ([2]; po, p.o. 2 mg/kg): 0.503 µM·h
Cmax ([2]; po, p.o. 2 mg/kg): 159 nM
Tmax ([2]; po, p.o. 2 mg/kg): 15 min
bioavailability ([2]; po, p.o. 2 mg/kg): 22.9%
half-life ([2]; po, p.o. 2 mg/kg): 195 min
AUC(0-t) ([3]; iv, i.v. 1 mg/kg): 1.9 µM·h
clearance ([3]; iv, i.v. 1 mg/kg): 15.8 mL/min/kg
half-life ([3]; iv, i.v. 1 mg/kg): 239 min
Vd [3, 7]: 4.86 L/kg
AUC(0-t) ([3]; po, p.o. 2 mg/kg): 1.84 µM·h
Cmax ([3]; po, p.o. 2 mg/kg): 233 nM
Tmax ([3]; po, p.o. 2 mg/kg): 2 h
bioavailability ([3]; po, p.o. 2 mg/kg): 48.4%
half-life ([3]; po, p.o. 2 mg/kg): 196 min
Compound: CC/C(=C(/c1ccc(OCCNC/C=C/C(=O)N(C)C)nc1)c1[nH]c2ccccc2c1Cl)c1cccc(OC)c1 [Compound 4 monohydrochloride]
Tumor volume 27 days after grouping ([4]; 3 mg/kg once a day): 396 ± 58 mm^3
T/C ([4]; 3 mg/kg once a day): 28.74%
TGI ([4]; 3 mg/kg once a day): 83%
Tumor volume 27 days after grouping ([4]; 10 mg/kg once a day): 124 ± 5 mm^3
T/C ([4]; 10 mg/kg once a day): 9.32%
TGI ([4]; 10 mg/kg once a day): 106%

IC50 [1, 5]: 1.11 nM
Compound: CC/C(=C(/c1ccc(OCCNC/C=C/C(=O)N(C)C)nc1)c1[nH]c2ccccc2c1Cl)c1csc(C)c1 [Compound 16]

IC50 [1, 5]: 1.6 nM
Compound: CC/C(=C(/c1ccc(OCCNC/C=C/C(=O)N(C)C)nc1)c1[nH]c2ccccc2c1Cl)c1ccc(Cl)cc1Cl [Compound 15]

IC50 [1, 5]: 0.87 nM
Compound: CC/C(=C(/c1ccc(OCCNC/C=C/C(=O)N(C)C)nc1)c1[nH]c2ccccc2c1Cl)c1ccccc1 [Compound 3]
